PubChem BioAssay AID720512 (Broad Institute, 2013)
The source made the active and inactive calls. The rule behind the calls is not given here.

Biological target: Toxin B (TcdB) glycohydrolase, Clostridioides difficile 630
Assay: TcdB glycohydrolase inhibitors, dose response, biochemical, cherry-pick, plate reader (AID 720512)
Conditions: recombinant TcdB glycohydrolase activity

Row | Structure (SMILES) | AC50
1 | Cc1ccc(N/N=C/c2c(O)n(-c3ccccc3)c(=O)[nH]c2=O)cc1 | 8.13 µM
2 | Cc1ccc(C)c2c1cc(C)c1nnc(SCC(=O)NCc3ccc4c(c3)OCO4)n12 | > 39 µM (inactive)
3 | CCc1cc(-c2n[nH]c(C)c2-c2nc(C)cs2)c(O)cc1OC | > 39 µM (inactive)
4 | CN1c2ccc(-c3ccccc3)cc2[C@@H]2[C@@H](CCN2C(=O)CN2CCOCC2)[C@@H]1CO | > 39 µM (inactive)
5 | CCNC(=O)C[C@H]1CC[C@@H]2[C@@H](COc3ccc(NC(=O)c4ccc5c(c4)OCO5)cc3C(=O)N2C)O1 | > 39 µM (inactive)

Same assay, conditions: recombinant TcdB glycohydrolase activity, at 19.5 µM (top of the series)

Row | Structure (SMILES) | activity change, negative = inhibition
6 | CCCS(=O)(=O)NC(=O)C1(C)CCN(C(=O)c2ccco2)C1 (stereo unspecified) | inactive
7 | NC1=NC[C@H](Cc2ccc(O)cc2)N1CCc1cc(C(F)(F)F)cc(C(F)(F)F)c1 | inactive
8 | C[C@@H]1C=C[C@](Cc2ccccc2)(C(=O)NCC2CC2)N1C(=O)c1ccccc1 | inactive
9 | CC(=O)c1cccc(OCC(=O)c2cc(C)n(-c3cc(C)on3)c2C)c1 | inactive
10 | COc1cc(/C=N/Nc2ccccn2)ccc1O | inactive
11 | O=C(NC(=S)NCc1ccccc1)c1cccnc1 | inactive
12 | O=C(N/N=C/c1cccc([N+](=O)[O-])c1)c1ccc(Br)cc1 | inactive
13 | C=C1CCN(Cc2ccccc2)S(=O)(=O)c2ccccc21 | inactive
14 | CCOC(=O)c1ccc[n+](CC(=O)c2ccc(NC(=O)c3ccccc3)cc2)c1 | inactive
15 | CCCNC(=O)C1(C)CCCN(C(=O)c2ccccc2OC(F)(F)F)C1 (stereo unspecified) | inactive
16 | COc1ccc(NS(=O)(=O)c2cc(N=Nc3c(O)[nH]c(=O)[nH]c3=O)ccc2Cl)cc1 | inactive
17 | O=C(CC(=O)N/N=C/c1ccc(O)cc1)N/N=C/c1ccc(O)cc1 | inactive
18 | Cc1ccc(C2=NS(=O)(=O)N(C)C(C(=O)NC(C)c3ccccc3)=C2)cc1 (stereo unspecified) | inactive
19 | Cc1ccc(C(=O)NC(=O)OCCn2c(C)cnc2[N+](=O)[O-])cc1 | inactive
20 | ClCC(CNCc1ccccc1)c1ccccc1 (stereo unspecified) | inactive
21 | O=c1c([N+](=O)[O-])cccn1Cc1ccc(F)cc1Cl | inactive
22 | Cc1cc(N2CCCC2=O)cc(C)c1S(=O)(=O)Nc1c(C)nn(C)c1C | inactive
23 | COc1ccc(-c2cn3cc(C)ccc3n2)cc1F | inactive
24 | O=c1ccc2cc(O)c(O)cc2o1 | inactive
25 | CCOc1ccc(S(=O)(=O)NCc2ccccc2Cl)cc1C(N)=O | inactive
26 | Nc1cc(N)cc(C(=O)OCC(=O)Nc2cc(S(=O)(=O)N3CCCCC3)ccc2Cl)c1 | inactive
27 | Cc1cc(C)cc(N=C2NC(=O)CS2)c1 | inactive

Row | Structure (SMILES) | activity change, negative = inhibition
28 | O=C(NNc1ccc(-c2csnn2)cc1)c1cc(Cl)cc(Cl)c1 | inactive
29 | COc1ccc(C=C2CCC3C(=O)CCCC3(C)C2=O)cc1 (stereo unspecified) | inactive
30 | COc1ccc(C2=NS(=O)(=O)N(C)C(C(=O)N3CCOCC3)=C2)cc1 | inactive
31 | Nc1nc(Nc2ccccc2)n[nH]1 | inactive
32 | Cc1ccc(S(=O)(=O)/N=C(/Nc2cccc(O)c2)c2ccccc2)cc1 | inactive
33 | Cc1cc(N/N=C/c2ccc(O)cc2O)nc(N2CCOCC2)n1 | inactive
34 | c1ccc2[nH]c(-c3ccc4c(c3)OCO4)nc2c1 | inactive
35 | O=C(O)c1ccc(/C=N/NC(=S)NCCN2CCOCC2)cc1 | inactive
36 | O=C(NNC(=O)c1cccc2ccccc12)c1cccc(F)c1 | inactive
37 | Cc1ccc(NC(=O)C2OCCc3ccccc32)cc1C (stereo unspecified) | inactive
38 | O=C(C[C@@H]1CC[C@@H]2[C@H](COC[C@@H](O)CN2C(=O)Nc2ccc(Cl)c(Cl)c2)O1)NCc1ccncc1 | inactive
39 | O=C1NN=C2CCCCCCC12 (stereo unspecified) | inactive
40 | Cc1c(O)ccc(NC(=O)/C=C/c2ccccc2)c1C | inactive
41 | Oc1ccccc1-c1cnc2cccnn12 | inactive
42 | CSc1ccc(/C=N/N2CCN(Cc3ccc(Cl)cc3)CC2)cc1 | inactive
43 | COc1ccc(-c2ccc3c(c2)[C@@H]2[C@@H](CCN2C(=O)C2CC2)[C@H](CO)N3C)cc1 | inactive
44 | CCCn1c(N)c(C(=O)COC(=O)c2cccc(S(=O)(=O)N3CCOCC3)c2)c(=O)[nH]c1=O | inactive
45 | COc1ccc(C(CNC(=O)c2oc3ccc(OC)cc3c2C)N2CCCC2)cc1 (stereo unspecified) | inactive
46 | CCSc1nnc(NC(=O)C2CC2c2ccccc2)s1 (stereo unspecified) | inactive
47 | CN1C(=O)C(c2nnc(Nc3cccc4ccccc34)s2)C2CC1(C)Oc1ccccc12 (stereo unspecified) | inactive
48 | Cc1cc(C)c2sc(NNC(=O)C3COc4ccccc4O3)nc2c1 (stereo unspecified) | inactive
49 | Cc1ccc(C)c2sc(NC(=O)c3ccc(N4C(=O)CCC4=O)cc3)nc12 | inactive

Row | Structure (SMILES) | activity change, negative = inhibition
50 | COc1ccc(Cl)cc1NC(=S)NC1CCCC1 | inactive
51 | CN1C(=O)NC(c2ccc(O)cc2)C2=C1CN(c1ccc(O)cc1)C2=O (stereo unspecified) | inactive
52 | COc1cccc(C(CNc2ccc(S(=O)(=O)N3CCN(C)CC3)cc2[N+](=O)[O-])N(C)C)c1 (stereo unspecified) | inactive
53 | Cc1c(-n2c(O)c(C3=c4ccccc4=NC3=O)sc2=S)c(=O)n(-c2ccccc2)n1C | inactive
54 | Cc1ccc2c(C)c3ccc4ccccc4c3c[n+]2c1 | inactive
55 | CCN(CC)CCNC(=O)C1CCN(S(=O)(=O)c2c(C)noc2/C=C/c2ccccc2F)CC1 | inactive
56 | CSc1nc2c(c(=O)[nH]c(=O)n2C)n1Cc1ccccc1 | inactive
57 | COc1ccc(S(=O)(=O)N2CCC[C@H]2C(=O)N2CCC[C@H]2C(=O)NCc2ccncc2)cc1C | inactive
58 | CNC(=O)C1Cc2c(-c3ccccc3Oc3ccccc3)ccnc2O1 (stereo unspecified) | inactive
59 | CC(OC(=O)[C@@H](NC(=O)OCc1ccccc1)C(C)C)C(=O)Nc1ccc(N2CCOCC2)cc1 (stereo partly specified) | inactive
60 | O=C(CNS(=O)(=O)c1ccc([N+](=O)[O-])cc1)N/N=C\c1ccc(O)cc1 | inactive
61 | COc1ccc(/C=N/n2c(-c3cc(C)[nH]n3)n[nH]c2=S)cc1OC | inactive
62 | COc1cc(/C=C2\SC(=S)N(NC(=O)c3cccc(O)c3)C2=O)ccc1O | inactive
63 | CC(=O)c1ccc(NC(=O)CNCC(c2ccccc2)N(C)C)cc1 (stereo unspecified) | inactive
64 | c1ccc(Cc2nnc3n2N=C(c2ccccc2)CS3)cc1 | inactive
65 | Cc1ccn2c(Cc3ccccc3)c(-c3ccc(F)cc3)nc2c1 | inactive
66 | Cc1cc(C(=O)CSc2nnnn2-c2ccccc2)c(C)n1-c1ccc2c(c1)OCO2 | inactive
67 | CNc1nc(C23CC4CC(CC(C4)C2)C3)cs1 | inactive
68 | COc1ccc(/C=C/c2onc(C)c2S(=O)(=O)N2CCC(C(=O)N3CCCCCC3)CC2)cc1 | inactive
69 | Cc1ccccc1C(C(=O)NC1CCCCC1)N(C(=O)c1ccccn1)c1cccnc1 (stereo unspecified) | inactive
70 | Cc1ccnc(N2C(=O)c3ccccc3C2=O)c1 | inactive
71 | NC(=O)NN=C1CC2CC1C1C=CCC21 (stereo unspecified) | inactive

Row | Structure (SMILES) | activity change, negative = inhibition
72 | Cc1ccc(S(=O)(=O)Oc2ccccc2/C=C2\SC(=O)NC2=O)cc1 | inactive
73 | Cc1ccc(S(=O)(=O)N2CC(CO)=CCC2c2ccccc2)cc1 (stereo unspecified) | inactive
74 | COC(=O)C[C@H]1CC[C@@H]2[C@@H](COc3ccc(NC(=O)c4ccc(OC)cc4)cc3C(=O)N2C)O1 | inactive
75 | CCc1ccc2oc(-c3cc(N)ccc3Cl)nc2c1 | inactive
76 | O=C1CCCC2=C1Sc1ccccc1N2 | inactive
77 | COc1ccccc1/C=N/NC(=O)CC(=O)NCc1ccccc1 | inactive
78 | Cc1cccc(/C=C/c2onc(C)c2S(=O)(=O)N2CCC(C(=O)NC(C)(C)C)CC2)c1 | inactive
79 | Cc1cccc(/C=C/c2onc(C)c2S(=O)(=O)N2CCC(C(=O)NC(C)C)CC2)c1 | inactive
80 | COC(=O)C1=C(c2ccc(F)cc2OCc2ccccc2)C[C@@H]2CC[C@H]1N2C(=O)N1CCCC1 | inactive
81 | C[C@@H]1CN([C@H](C)CO)S(=O)(=O)c2ccc(-c3ccncc3)cc2O[C@@H]1CN(C)Cc1ccc(Oc2ccccc2)cc1 | inactive
82 | CCOC(=O)Nc1ccc(OC(=O)Oc2ccc(NC(=O)OCC)cc2)cc1 | inactive
83 | COc1cc(O)ccc1C(=O)CCc1ccc(O)cc1 | inactive
84 | Cc1ccc(C)c(CN2C(=O)COc3ccc(C(=O)c4ccccc4C(=O)O)cc32)c1 | inactive
85 | Nn1c(SCc2ccccc2F)nnc1-c1ccccn1 | inactive
86 | Oc1ccc(-c2nccs2)cc1 | inactive
87 | O=C(O)c1ccc(-c2nnc(-c3ccccc3)o2)cc1 | inactive
88 | CC(N)C(=O)NC(C(=O)N1CCCC1C(=O)NC(c1ccccc1)c1ccccc1)C(C)C (stereo unspecified) | inactive
89 | CCCNC(=O)C1CCN(S(=O)(=O)c2c(C)noc2/C=C\c2ccc(OC)cc2)CC1 | inactive
90 | O=C(O)c1cc(-c2ccccc2Cl)n(-c2cccc(Cl)c2)n1 | inactive
91 | COc1cccc(Oc2ccc3nnc(C(F)(F)F)n3n2)c1 | inactive
